Here are results for 30 compounds from ChEMBL document CHEMBL1126157, “QSAR analyses of the substituted indanone and benzylpiperidine rings of a series of indanone-benzylpiperidine inhibitors of acetylcholinesterase” (J Med Chem, 1992).

In assay [1] the target is T1, Acetylcholinesterase (Homo sapiens, UniProt P22303).
The target in assay [2] is T1, Acetylcholinesterase. This is another data set of the same source.
Description: Inhibition of acetylcholinesterase.
In assay [3] the target is T1, Acetylcholinesterase. The source holds these as a separate data set.
Assay [4] has as its target T1, Acetylcholinesterase. This is another data set of the same source.
Description: Inhibition of acetylcholinesterase.

The IC50 is the point on the concentration scale where inhibition reaches its midpoint.

T1 sequence (P22303 whole entry): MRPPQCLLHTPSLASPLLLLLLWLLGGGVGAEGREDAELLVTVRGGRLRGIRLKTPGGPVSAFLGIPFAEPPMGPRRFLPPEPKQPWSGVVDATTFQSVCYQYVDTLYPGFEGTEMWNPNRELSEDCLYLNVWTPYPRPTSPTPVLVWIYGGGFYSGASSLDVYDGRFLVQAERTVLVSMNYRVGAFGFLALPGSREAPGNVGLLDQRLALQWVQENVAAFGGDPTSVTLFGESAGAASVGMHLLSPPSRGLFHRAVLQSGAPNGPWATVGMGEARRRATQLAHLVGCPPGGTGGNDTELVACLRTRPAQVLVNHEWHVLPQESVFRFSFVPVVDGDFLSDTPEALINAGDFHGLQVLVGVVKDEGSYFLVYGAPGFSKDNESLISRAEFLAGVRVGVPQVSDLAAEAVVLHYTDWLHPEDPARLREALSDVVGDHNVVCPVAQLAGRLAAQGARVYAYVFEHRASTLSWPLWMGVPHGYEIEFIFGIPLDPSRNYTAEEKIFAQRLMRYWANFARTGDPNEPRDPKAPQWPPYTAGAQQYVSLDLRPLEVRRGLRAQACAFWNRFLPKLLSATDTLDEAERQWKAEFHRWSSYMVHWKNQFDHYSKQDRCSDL

For `COc1cc2c(cc1OC(C)C)CC(C)C2=O` (stereo not given), the 50% inhibitory concentration (IC50) was 380 nM against Acetylcholinesterase [1] and 8.91 nM on Acetylcholinesterase [2].
Consider `COc1cc2c(c(OC)c1OC)C(=O)C(C)C2` (stereo not given), for which the IC50 on Acetylcholinesterase [1] is 380 nM; against Acetylcholinesterase [2] it was 13.2 nM.
As to `COc1cc(C)cc(OC)c1OC`, the IC50 against Acetylcholinesterase [3] and on Acetylcholinesterase [4] was 4900 nM in each case.
Take `Cc1ccc(F)cc1`: the IC50 was 4900 nM against Acetylcholinesterase [3] and 9.55 nM against Acetylcholinesterase [4].
As to `COc1cc2c(c(OC)c1)C(=O)C(C)C2` (stereo not given), the IC50 is 380 nM against Acetylcholinesterase [1] and 25.1 nM on Acetylcholinesterase [2].
Consider `COc1cc2c(cc1O)C(=O)C(C)C2` (stereo not given), for which the IC50 is 380 nM on Acetylcholinesterase [1] and 1.32 nM against Acetylcholinesterase [2].
As to `CC1Cc2ccccc2C1=O` (stereo not given), the half-maximal inhibitory concentration (IC50) is 380 nM against Acetylcholinesterase [1] and 148 nM against Acetylcholinesterase [2].
`Cc1cccc(C)c1` [M-XYLENE]: the IC50 is 4900 nM at Acetylcholinesterase [3] and 2 nM at Acetylcholinesterase [4].
As to `COc1ccc2c(c1OC)CC(C)C2=O` (stereo not given), the values for the IC50 against Acetylcholinesterase [1] and against Acetylcholinesterase [2] were 380 nM and 20 nM, respectively.
For the compound `COc1cccc2c1CC(C)C2=O` (stereo not given), the results for the IC50 at Acetylcholinesterase [1] and against Acetylcholinesterase [2] were 380 nM and 12 nM, respectively.
Take `COc1cccc(C)c1`: the values for the IC50 against Acetylcholinesterase [3] and at Acetylcholinesterase [4] were 4900 nM and 219 nM, respectively.
For `Cc1ccccc1C` [O-XYLENE], the IC50 against Acetylcholinesterase [3] is 4900 nM; at Acetylcholinesterase [4] it was 10 nM.
For `COc1ccc(OC)c2c1CC(C)C2=O` (stereo not given), the IC50 against Acetylcholinesterase [1] was 380 nM; against Acetylcholinesterase [2] it was 36.3 nM.
Take `Cc1ccc(O)cc1` [p-CRESOL]: the values for the half-inhibitory concentration (IC50) on Acetylcholinesterase [3] and against Acetylcholinesterase [4] were 4900 nM and 1.82 nM, respectively.
Take `CC1Cc2ccc(F)cc2C1=O` (stereo not given): the values for the IC50 on Acetylcholinesterase [1] and against Acetylcholinesterase [2] were 380 nM and 200 nM, respectively.
Turning to `COc1ccc2c(c1)C(=O)C(C)C2` (stereo not given), the IC50 at Acetylcholinesterase [1] is 380 nM; against Acetylcholinesterase [2], 81.3 nM.
Regarding `COc1cc2c(cc1OC)C(=O)C(C)C2` (stereo not given), the IC50 was 380 nM against Acetylcholinesterase [1] and 5.25 nM at Acetylcholinesterase [2].
As for `Cc1cccc(F)c1`, the IC50 on Acetylcholinesterase [3] is 4900 nM; against Acetylcholinesterase [4], 1 nM.
As for `Cc1ccccc1` [TOLUENE], the half-inhibitory concentration (IC50) against Acetylcholinesterase [3] was 4900 nM; against Acetylcholinesterase [4] it was 5.25 nM.
As for `COc1cc2c(cc1O)CC(C)C2=O` (stereo not given), the IC50 against Acetylcholinesterase [1] and against Acetylcholinesterase [2] was 380 nM in each case.
As for `Cc1ccccc1F`, the IC50 was 4900 nM against Acetylcholinesterase [3] and 9.55 nM against Acetylcholinesterase [4].
Take `Cc1ccc2c(c1)C(=O)C(C)C2` (stereo not given): the IC50 was 380 nM at Acetylcholinesterase [1] and 69.2 nM on Acetylcholinesterase [2].
Regarding `COc1ccc2c(c1OC)C(=O)C(C)C2` (stereo not given), the IC50 against Acetylcholinesterase [1] was 380 nM; against Acetylcholinesterase [2], 87.1 nM.
For `Cc1cccc(O)c1` [METACRESOL], the IC50 on Acetylcholinesterase [3] was 4900 nM; against Acetylcholinesterase [4], 45.7 nM.
Regarding `CCOc1cc2c(cc1OCC)C(=O)C(C)C2` (stereo not given), the IC50 against Acetylcholinesterase [1] was 380 nM; against Acetylcholinesterase [2] it was 6.31 nM.
Regarding `COc1ccc(C)cc1OC`, the IC50 was 4900 nM against Acetylcholinesterase [3] and 3980 nM at Acetylcholinesterase [4].
For `Cc1ccc([N+](=O)[O-])cc1` [4-NITROTOLUENE], in that order: 4900 nM and 100 nM.
Turning to `CC1Cc2cc3c(cc2C1=O)OCO3` (stereo not given), the IC50 on Acetylcholinesterase [1] was 380 nM; against Acetylcholinesterase [2] it was 22.9 nM.
Consider `Cc1cccc2c1CC(C)C2=O` (stereo not given), for which the half-inhibitory concentration (IC50) is 380 nM against Acetylcholinesterase [1] and 7.08 nM against Acetylcholinesterase [2].
As to `Cc1ccc(C)cc1` [P-XYLENE], the IC50 is 4900 nM against Acetylcholinesterase [3] and 39.8 nM against Acetylcholinesterase [4].
